Assay results as given in US9180139B2, “Regulator, pharmaceutical composition encompassing the regulator and application thereof” (NATIONAL CHENG KUNG UNIVERSITY, priority 2012, dated 2015).

Tests used:
β3 integrin = test: Expression of β3 integrin after shRNA transfection; type: cell-based, human; conditions: TSGH8301 and TSGH8301/EMP2-2 cell lines
Text: (§1) These two cell lines were transfected with small hairpin RNAs (shRNA) against αV and β3 integrins, respectively. In brief, TSGH8301 and TSGH8301/EMP2-2 cell lines were transfected with shRNAs of A1 or C1 against β3 integrin, shRNAs of H1 or G1 against αV integrin. The mRNA of EMP2 and TBP of these transfected cell lines were harvested for quantification by real-time PCR. The sequences of shRNAs of A1 (SEQ ID NO. 1), C1 (SEQ ID NO. 2), H1 (SEQ ID NO. 3) and G1 (SEQ ID NO. 4) are 5′-[…] CATAATGTTTTT-3′, 5′-[…] AACAGGGTTTTT-3′, 5′-[…] GTAAGGCTTTTTG-3′ and 5′-[…] TCCCTCGTTTTTG-3′, respectively. After transfections of shRNAs of A1, C1, H1 and G1, expressions of αV and β3 integrins in TSGH8301 and TSGH8301/EMP2-2 cell lines were repressed correspondingly. Besides, mRNA expression of EMP2 and TBP in TSGH8301 and TSGH8301/EMP2-2 cell lines without transfection was taken as controls (Ctl).

αV integrin = test: Expression of αV integrin after shRNA transfection; type: cell-based, human; conditions: TSGH8301 and TSGH8301/EMP2-2 cell lines
Text: as §1

[1] = tested on: EMP2 mRNA expression of RT4 bladder cancer cell line; test: Northern blotting of EMP2 mRNA expression in RT4 cells treated with genistein; type: cell-based; conditions: genistein 10 μg/mL, 24 hours, normalized to β-actin
Procedure: FIG. 1A is a northern blotting figure showing the respective EMP2 mRNA expressions of RT4 bladder cancer cell line treated with genistein (10 μg/mL) for 24 hours (Isoflavone treatment group) or not (Control group).
Please refer to FIG. 1A which is a northern blotting figure. […] That is, genistein, the isoflavone compound, can up-regulate the EMP2 mRNA expression of RT4 cells.

[2] = tested on: EMP2 mRNA expression of TSGH8301 human bladder cancer cell line; test: Relative quantification of EMP2 mRNA expression in TSGH8301 cells incubated with genistein; type: cell-based
Procedure: TSGH8301 cell lines were initially incubated with mediums containing 2 μM, 5 μM and 10 μM of genistein, respectively, and the respective EMP2 mRNA expressions was measured at sixth day, wherein mRNA expressions of housekeeping gene was taken as the baseline control.
TSGH8301 cells were initially incubated with medium containing 15 μM of genistein and EMP2 mRNA expressions were measured at second, fourth and sixth days, respectively, wherein mRNA expressions of housekeeping gene of TSGH8301 cell lines were taken as the baseline control. With increase of incubating durations, EMP2 mRNA expression of TSGH8301 cells incubated with genistein was increased as shown in FIG. 3.

Row | Molecule | expression of β3 integrin after shRNA transfection (β3 integrin) | expression of αV integrin after shRNA transfection (αV integrin) | other results
1 | A1: shRNA against β3 integrin, 5′-CCGGCATTATGTTTACAGAGGACAACTCGAGTTGTCCTCTGTAAA CATAATGTTTTT-3′ (CCGGCATTATGTTTACAGAGGACAACTCGAGTTGTCCTCTGTAAACATAATGTTTTT) | repressed | – | –
2 | H1: shRNA against αV integrin, 5′-CCGGGCCTTACAAATACAACAACAACTCGAGTTGTTGTTGTATTT GTAAGGCTTTTTG-3′ (CCGGGCCTTACAAATACAACAACAACTCGAGTTGTTGTTGTATTTGTAAGGCTTTTTG) | – | repressed | –
3 | C1: shRNA against β3 integrin, 5′-CCGGCCCTGTTACAATATGAAGAATCTCGAGATTCTTCATATTGT AACAGGGTTTTT-3′ (CCGGCCCTGTTACAATATGAAGAATCTCGAGATTCTTCATATTGTAACAGGGTTTTT) | repressed | – | –
4 | O=c1c(-c2ccc(O)cc2)coc2cc(O)cc(O)c12 [genistein] | – | – | EMP2 mRNA expression compared with Control group (defined as 1) [1]: up to 3.5 times; EMP2 mRNA expression, dependence on genistein concentration ([2]; 2 μM, 5 μM and 10 μM genistein, measured at sixth day, P=0.03 two way ANOVA): dose-dependent up-regulation; EMP2 mRNA expression, dependence on incubating duration ([2]; 15 μM genistein, measured at second, fourth and sixth days, P=0.03 one way ANOVA): time-dependent up-regulation
5 | G1: shRNA against αV integrin, 5′-CCGGCGAGGGAAGTTACTTCGGATTCTCGAGAATCCGAAGTAACT TCCCTCGTTTTTG-3′ (CCGGCGAGGGAAGTTACTTCGGATTCTCGAGAATCCGAAGTAACTTCCCTCGTTTTTG) | – | repressed | –
